The IC50 is the concentration that inhibits the measured activity by half. Broadly, the EC50 is the concentration giving half of the maximal effect. One may read the solubility as the concentration that dissolves in the medium under given conditions.

The values below come from patent US9593149B2, “Amylin and calcitonin receptor agonist” (Novo Nordisk A/S, priority 2014, dated 2017).

≈ marks a conversion by molar mass, not a printed value. Peptide text beside a SMILES is read from it.

The target of series [1] is T1, human amylin receptor (human calcitonin receptor + human RAMP3), BHK tk'ts 13 cells (Homo sapiens, UniProt O60896+P30988).
T1 construct: expressed in transfected cells; host or cells: BHK tk'ts 13
T1 sequence (O60896 24-148, one chain of several): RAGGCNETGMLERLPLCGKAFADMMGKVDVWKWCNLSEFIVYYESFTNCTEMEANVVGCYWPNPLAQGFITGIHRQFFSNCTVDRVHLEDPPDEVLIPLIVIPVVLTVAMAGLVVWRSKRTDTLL
In words: Assay (Va) binding to the human amylin receptor (whole cell). Particulars: read-out: hAmylin-R binding IC50. The procedure:
The day before the assay the cells were Seeded into Poly-D-Lysin coated 384W Opaque White, BD BioCoat plates (10000 cells/well) and Incubated overnight at 37° C., 5% CO2, 95% humidity.

Series [2] has as its target T2, human amylin 3(a) receptor (human calcitonin receptor + RAMP-3), BHK570 cells (Homo sapiens, UniProt O60896+P30988).
T2 construct: host or cells: BHK570
In words: Assay (II)b functional CRE-luciferase assay without albumin, human amylin receptor. Format: cell-based. Conditions: Tested without HSA; read-out: hAmylin-R funct. EC50. From the text:
(§1) Assay(II)b—Human Calcitonin and Amylin Receptor Assay without Albumin
(§2) 1. Luciferase Assay Outline
(§3) Activation of calcitonin and amylin (co-expression of calcitonin receptor and receptor activity modifying proteins (RAMP)) receptors lead to increased intracellular concentrations of cAMP. Consequently, transcription is activated by promoters containing multiple copies of the cAMP response element (CRE). It is thus possible to measure amylin activity by the use of a CRE luciferase reporter gene introduced into BHK cells also expressing calcitonin or amylin receptors.
(§4) 2. Construction of Calcitonin (a)—and Amylin 3(a)—Receptor/CRE-Luc Cell Line.
(§5) A BHK570 cell line was stably transfected with the human calcitonin receptor and a CRE-responsive luciferase reporter gene (Hollex-1 cell line, obtained from ZymoGenetics described in U.S. Pat. No. 5,622,839). The cell line was further transfected with RAMP-3, using standard methods. This turns the calcitonin receptor into an amylin 3(a) receptor. Methotrexate, Neomycin, and Hygromycin are selection markers for luciferase, the calcitonin receptor, and RAMP-3, respectively. To prepare the batches of frozen cells used in the luciferase assay described in the section below, the cells were cultured in growth medium (DMEM with 10% FBS, 1% Pen/Strep and 1 mM Napyruvate). […] Cells at approximately 80-90% confluence were washed with PBS and loosened from the plates with Versene. After centrifugation (2 min, 1300 rpm, in a Centrion Scientific centriuge C2 series with a BRK 5510 rotor head), the cell pellet was dissolved in 10% DMSO, 30% FBS and 60% growth medium and frozen (−80° C.) until utilization.
(§6) The day before the experiment, BHK calcitonin (a) receptor- or amylin 3(a)-receptor/CRE-luc cells were thawed, washed twice, and seeded in 40 μl growth medium on white 384 well culture plates (4.000 cells/well). On the assay day, the cells were washed 3 times in assay media (Dulbecco media W/o phenol red, 500 ml (Gibco, 11880-028); 0.1% ovalbumin; 10 mM Hepes pH 7.4; 1× Glutamin; 1% Pen/Strep). Then, 30 μl/well of sample diluted in assay buffer was added. After 3 hours of incubation at 37° C. and 5% CO2, the reaction was terminated by adding 30 μl/well SteadyLite Plus™. The plates were shaken at 300 rpm for 5 min at RT. Then, the plates were sealed and incubated at room temperature for 30 minutes. Finally, luminescence was tested on a TopCounter (Packard) in SPC (single photon counting) mode.
(§7) Additional Comment Regarding Use of Data Retrieved Via this Method
(§8) For the same reasons, measurements made in Assay IIa should not be compared in Assay IIb.

The target in series [3] is T3, human calcitonin (a) receptor, BHK570 cells (Homo sapiens, UniProt P30988).
T3 construct: host or cells: BHK570
T3 sequence (P30988 25-474): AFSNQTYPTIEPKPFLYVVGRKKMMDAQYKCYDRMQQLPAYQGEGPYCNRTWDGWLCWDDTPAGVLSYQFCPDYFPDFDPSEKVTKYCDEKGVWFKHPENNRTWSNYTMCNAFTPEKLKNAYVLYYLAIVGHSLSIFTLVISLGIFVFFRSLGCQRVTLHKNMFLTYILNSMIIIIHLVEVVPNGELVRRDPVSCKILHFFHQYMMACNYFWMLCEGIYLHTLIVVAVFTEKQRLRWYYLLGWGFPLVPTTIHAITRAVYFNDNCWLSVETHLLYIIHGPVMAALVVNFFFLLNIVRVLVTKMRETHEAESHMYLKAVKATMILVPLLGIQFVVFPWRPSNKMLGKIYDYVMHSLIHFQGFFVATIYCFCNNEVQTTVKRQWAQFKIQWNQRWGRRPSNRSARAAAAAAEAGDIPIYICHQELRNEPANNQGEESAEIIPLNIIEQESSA
In words: Assay (II)b functional CRE-luciferase assay without albumin, human calcitonin receptor. It is filed as cell-based. Conditions: Tested without HSA; read-out: hCTR funct. EC50.
From the text: as §1, §2, §3, §4, §5, §6, §7, §8

Series [4] is described as follows: Assay (IV) determination of solubility. Format: physicochemical. The procedure: Assay (IV)—Determination of Solubility
The mimylin peptide was dissolved in water at ˜500 nmol/ml and mixed 1:1 with a series of buffers (100 mM glycylglycine pH 3.0, 100 mM glycylglycine pH 4.0, 100 mM glycylglycine pH 5.0, 100 mM bistrispropane pH 6.0, 100 mM bistrispropane pH 6.5, 100 mM bistrispropane pH 7.0, 100 mM bistrispropane pH 7.5, 100 mM bistrispropane pH 8.0).

Another series addresses T4, rat calcitonin receptor (Rattus norvegicus, UniProt P32214).
T4 construct: expressed in transfected cells; host or cells: BHK tk'ts 13 (transient, FuGENE 6)
T4 sequence (P32214 25-479 isoform P32214-2 limits assumed): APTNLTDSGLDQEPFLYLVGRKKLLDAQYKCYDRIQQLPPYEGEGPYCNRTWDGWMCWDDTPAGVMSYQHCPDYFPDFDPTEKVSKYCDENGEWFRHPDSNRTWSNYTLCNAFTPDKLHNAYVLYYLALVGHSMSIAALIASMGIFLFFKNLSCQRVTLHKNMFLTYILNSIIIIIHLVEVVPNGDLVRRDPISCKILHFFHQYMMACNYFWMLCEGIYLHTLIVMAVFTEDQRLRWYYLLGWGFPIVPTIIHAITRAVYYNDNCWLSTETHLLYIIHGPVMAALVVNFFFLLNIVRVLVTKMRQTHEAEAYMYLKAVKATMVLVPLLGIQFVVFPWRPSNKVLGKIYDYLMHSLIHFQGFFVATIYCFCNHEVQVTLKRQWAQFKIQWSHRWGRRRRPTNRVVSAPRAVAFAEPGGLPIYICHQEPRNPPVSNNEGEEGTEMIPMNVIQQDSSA
In words: Assay (VIII) binding to the rat calcitonin receptor. Particulars: membranes; read-out: rCT-R binding IC50. A digest of the protocol: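 Affinity given as IC50 from a one-site competition fit of bound radioactivity, counted by scintillation after cold HBSS washes and NaOH/SDS lysis. Membranes came from BHK tk'ts 13 cells transiently expressing the rat receptor; other conditions followed the human calcitonin receptor protocol.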

T2 sequence (O60896 24-148, one chain of several): as the sequence (O60896 24-148, one chain of several) above

For `CC(C)C[C@H](NC(=O)[C@H](CCCNC(=N)N)NC(=O)CNC(=O)[C@H](CC(C)C)NC(=O)[C@@H](NC(=O)[C@H](C)NC(=O)[C@@H](NC(=O)[C@@H](NC(=O)[C@H](CC(C)C)NC(=O)[C@H](CCC(=O)O)NC(=O)[C@H](CO)NC(=O)[C@H](C)N)[C@@H](C)O)[C@@H](C)O)C(C)C)C(=O)N[C@@H](CCC(=O)O)C(=O)N[C@@H](C)C(=O)N[C@@H](CCC(=O)O)C(=O)N[C@@H](CC(C)C)C(=O)N[C@@H](Cc1c[nH]cn1)C(=O)N[C@@H](CCC(=O)O)C(=O)N[C@@H](CC(C)C)C(=O)N[C@H](C(=O)N[C@H](C(=O)N[C@@H](CC(C)C)C(=O)N1CCC[C@H]1C(=O)N[C@@H](CCCNC(=N)N)C(=O)N[C@H](C(=O)N[C@@H](CCC(=O)O)C(=O)N[C@H](C(=O)NCC(=O)N[C@H](C(=O)NCC(=O)N[C@H](C(=O)N1CCC[C@H]1C(N)=O)[C@@H](C)O)[C@@H](C)O)[C@@H](C)O)[C@@H](C)O)[C@@H](C)O)[C@@H](C)O` [106bb, H—ASELTTAVLGRLEAELHELTTLPRTETGTGTP—NH2] (H-ASELTTAVLGRLEAELHELTTLPRTETGTGTP-NH2), in series [1], the IC50 amounted to 71.4 nM.

For `CC(C)C[C@H](NC(=O)CNC(=O)[C@H](CO)NC(=O)[C@H](C)N)C(=O)N[C@@H](CO)C(=O)N[C@H](C(=O)N[C@@H](C)C(=O)N[C@H](C(=O)N[C@@H](CC(C)C)C(=O)NCC(=O)N[C@@H](CCCNC(=N)N)C(=O)N[C@@H](CC(C)C)C(=O)N[C@@H](CO)C(=O)N[C@@H](CCC(N)=O)C(=O)N[C@@H](CCC(=O)O)C(=O)N[C@@H](CC(C)C)C(=O)N[C@@H](Cc1c[nH]cn1)C(=O)N[C@@H](CCC(=O)O)C(=O)N[C@@H](CC(C)C)C(=O)N[C@@H](CCC(N)=O)C(=O)N[C@H](C(=O)N[C@@H](Cc1ccc(O)cc1)C(=O)N1CCC[C@H]1C(=O)N[C@@H](CCCNC(=N)N)C(=O)N[C@H](C(=O)N[C@@H](CCC(=O)O)C(=O)N[C@H](C(=O)NCC(=O)N[C@@H](CO)C(=O)NCC(=O)N[C@H](C(=O)N[C@@H](Cc1ccc(O)cc1)C(N)=O)[C@@H](C)O)[C@@H](C)O)[C@@H](C)O)[C@@H](C)O)C(C)C)[C@@H](C)O` [118bb, [des1, 4G, 9V, 15Q, 21Q, 23Y, 30S, 31G, 32T, 33Y]mimylin], the EC50 was 8 pM in series [2] and 4 pM in series [3].

`CC(C)C[C@H](NC(=O)CNC(=O)[C@H](CO)NC(=O)[C@H](C)N)C(=O)N[C@@H](CO)C(=O)N[C@H](C(=O)N[C@@H](C)C(=O)N[C@H](C(=O)N[C@@H](CC(C)C)C(=O)NCC(=O)N[C@@H](CCCNC(=N)N)C(=O)N[C@@H](CC(C)C)C(=O)N[C@@H](CO)C(=O)N[C@@H](CCC(N)=O)C(=O)N[C@@H](CCC(=O)O)C(=O)N[C@@H](CC(C)C)C(=O)N[C@@H](Cc1c[nH]cn1)C(=O)N[C@@H](CCC(=O)O)C(=O)N[C@@H](CC(C)C)C(=O)N[C@@H](CCC(N)=O)C(=O)N[C@H](C(=O)N[C@@H](Cc1ccc(O)cc1)C(=O)N1CCC[C@H]1C(=O)N[C@@H](CCCNC(=N)N)C(=O)N[C@H](C(=O)N[C@@H](CCC(=O)O)C(=O)N[C@H](C(=O)NCC(=O)N[C@@H](CO)C(=O)NCC(=O)N[C@H](C(=O)N[C@@H](Cc1ccc(O)cc1)C(N)=O)[C@@H](C)O)[C@@H](C)O)[C@@H](C)O)[C@@H](C)O)[C@@H](C)O)[C@@H](C)O` [124bb, [des1, 4G, 9T, 15Q, 21Q, 23Y, 30S, 31G, 32T, 33Y]mimylin] (H-ASGLSTATLGRLSQELHELQTYPRTETGSGTY-NH2; N-terminus and C-terminus assumed): the EC50 is 5 pM in series [2] and 4 pM in series [3].

In the case of `CC(C)C[C@H](NC(=O)CNC(=O)[C@H](CO)NC(=O)[C@H](C)NC(=O)COCCOCCNC(=O)COCCOCCNC(=O)CC[C@H](NC(=O)CCCCCCCCCCCCCCCCCCC(=O)O)C(=O)O)C(=O)N[C@@H](CO)C(=O)N[C@H](C(=O)N[C@@H](C)C(=O)N[C@H](C(=O)N[C@@H](CC(C)C)C(=O)NCC(=O)N[C@@H](CCCNC(=N)N)C(=O)N[C@@H](CC(C)C)C(=O)N[C@@H](CO)C(=O)N[C@@H](CCC(N)=O)C(=O)N[C@@H](CCC(=O)O)C(=O)N[C@@H](CC(C)C)C(=O)N[C@@H](Cc1cnc[nH]1)C(=O)N[C@@H](CCC(=O)O)C(=O)N[C@@H](CC(C)C)C(=O)N[C@@H](CCC(N)=O)C(=O)N[C@H](C(=O)N[C@@H](Cc1ccc(O)cc1)C(=O)N1CCC[C@H]1C(=O)N[C@@H](CCCNC(=N)N)C(=O)N[C@H](C(=O)N[C@@H](CCC(=O)O)C(=O)N[C@H](C(=O)NCC(=O)N[C@@H](CO)C(=O)NCC(=O)N[C@H](C(=O)N[C@@H](Cc1ccc(O)cc1)C(N)=O)[C@@H](C)O)[C@@H](C)O)[C@@H](C)O)[C@@H](C)O)C(C)C)[C@@H](C)O` [compound 120, [N-terminal(C20 diacid-gGlu-2xOEG), des1, 4G, 9V, 15Q, 21Q, 23Y, 30S, 31G, 32T, 33Y]mimylin], the Solubility result in series [4] (pH 3.0), in series [4] (pH 4.0), in series [4] (pH 6.0), in series [4] (pH 6.5), in series [4] (pH 7.0) and in series [4] (pH 7.5) was “≧200 μM” throughout. The Solubility result in series [4] (pH 8.0) is “≧200 μM”. Further, the solubility at 18 h in series [4] (pH 5.0) was found to be 96 µM (≈ 400 µg/mL). Moreover, the IC50 at rat calcitonin receptor came to 0.027 nM.
